According to US20240384268A1, “Oligonucleotides” (Hudson Institute of Medical Research, priority 2021, published 2024):

Target: T1, human TLR9 (Homo sapiens, UniProt Q9NR96)
T1 construct: HA; host or cells: 293XL-hTLR9-HA (HEK293)
T1 sequence (Q9NR96 26-1032): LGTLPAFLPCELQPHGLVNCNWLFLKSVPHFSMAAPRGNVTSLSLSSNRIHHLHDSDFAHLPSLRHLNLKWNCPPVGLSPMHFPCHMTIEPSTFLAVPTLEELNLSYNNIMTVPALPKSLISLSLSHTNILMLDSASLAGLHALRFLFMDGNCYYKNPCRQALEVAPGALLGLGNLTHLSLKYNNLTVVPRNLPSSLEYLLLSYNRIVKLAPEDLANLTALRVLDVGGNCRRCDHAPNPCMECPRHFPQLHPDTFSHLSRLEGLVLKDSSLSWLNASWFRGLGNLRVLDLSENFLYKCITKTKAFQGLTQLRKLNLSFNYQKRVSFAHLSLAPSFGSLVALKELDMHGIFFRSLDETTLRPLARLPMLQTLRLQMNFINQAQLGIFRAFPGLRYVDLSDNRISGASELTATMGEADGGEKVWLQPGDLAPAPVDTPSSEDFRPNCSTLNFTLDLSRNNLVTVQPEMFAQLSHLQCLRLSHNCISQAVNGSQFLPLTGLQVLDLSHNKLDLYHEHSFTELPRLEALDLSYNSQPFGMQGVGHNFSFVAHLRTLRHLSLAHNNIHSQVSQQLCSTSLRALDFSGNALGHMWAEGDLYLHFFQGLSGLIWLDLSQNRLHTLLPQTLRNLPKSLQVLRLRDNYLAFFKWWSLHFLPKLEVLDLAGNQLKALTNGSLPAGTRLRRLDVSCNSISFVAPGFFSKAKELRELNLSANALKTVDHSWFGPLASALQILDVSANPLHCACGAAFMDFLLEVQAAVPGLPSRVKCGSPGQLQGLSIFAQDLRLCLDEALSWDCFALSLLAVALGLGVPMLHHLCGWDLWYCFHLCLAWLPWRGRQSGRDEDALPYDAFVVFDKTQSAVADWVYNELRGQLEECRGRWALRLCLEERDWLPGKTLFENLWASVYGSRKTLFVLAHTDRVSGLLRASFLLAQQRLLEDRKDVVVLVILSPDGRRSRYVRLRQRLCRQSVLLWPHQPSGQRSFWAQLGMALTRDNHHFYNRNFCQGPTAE
Assay: HEK-TLR9 NF-κB-luciferase reporter, ODN2006 stimulation
Format: cell-based
Conditions: averaged NF-κB-Luciferase relative to ODN2006 condition; for TLR9 100 nM: MOE-modified ASO at 100 nM; for TLR9 500 nM: MOE-modified ASO at 500 nM

Row | Sequence | TLR9 100 nM | TLR9 500 nM
1 | AGGTCTTGGCTTCGTGGAGC (antisense; 2'-MOE modified, pattern not given here) [MB21D1-522 MOE] | 0.568 | 0.280
2 | TCAAAGGACTGAGGAAAGGG (antisense; 2'-MOE modified, pattern not given here) [CAMSAP1-6273 MOE] | 0.265 | 0.040
3 | CAATGTGATGGCCTCCCATC (antisense; 2'-MOE modified, pattern not given here) [HPRT-335 MOE] | 0.614 | 0.412
4 | GGAGGTCTTGGCTTCGTGGA (antisense; 2'-MOE modified, pattern not given here) [MB21D1-524 MOE] | 0.466 | 0.342
5 | GTCTTGGCTTCGTGGAGCAG (antisense; 2'-MOE modified, pattern not given here) [MB21D1-520 MOE] | 0.709 | 0.599
6 | CAACACTTCGTGGGGTCCTT (antisense; 2'-MOE modified, pattern not given here) [HPRT-665 MOE] | 0.858 | 0.619
7 | GGGAAAGGTTATGCAAGGTC (antisense; 2'-MOE modified, pattern not given here) [CTNN2B-916 MOE] | 0.521 | 0.505
8 | AACACTTCGTGGGGTCCTTT (antisense; 2'-MOE modified, pattern not given here) [HPRT-664 MOE] | 0.426 | 0.402
9 | GTGTCTTCATCGGCCCTGCC (antisense; 2'-MOE modified, pattern not given here) [CAMSAP1-2113 MOE] | 0.611 | 0.201
10 | AGATCTGGCAGCCCATCAAC (antisense; 2'-MOE modified, pattern not given here) [CTNN2B-2516 MOE] | 0.607 | 0.268
11 | GGTGGTGGCCACCCATCTCA (antisense; 2'-MOE modified, pattern not given here) [CTNN2B-2479 MOE] | 0.761 | 0.317
12 | CCAACACTTCGTGGGGTCCT (antisense; 2'-MOE modified, pattern not given here) [HPRT-666 MOE] | 0.612 | 0.600
13 | GGAGATTTCAGAGCAGCTTC (antisense; 2'-MOE modified, pattern not given here) [EGFR-4885 MOE] | 0.541 | 0.381
14 | GTCCACATCCTGTGGCTCGT (antisense; 2'-MOE modified, pattern not given here) [CAMSAP1-2906 MOE] | 0.559 | 0.254
15 | GTCCTTGCACGTGGCTTCGT (antisense; 2'-MOE modified, pattern not given here) [EGFR-1013 MOE] | 0.682 | 0.602
16 | GCGTGTCTGGAAGCTTCCTT (antisense; 2'-MOE modified, pattern not given here) [CTNN2B-809 MOE] | 0.263 | 0.229
